In patent publication US20110224226A1, “COMPOSITIONS AND METHODS FOR INCREASING BLOOD PLATELET LEVELS IN HUMANS” (AKARX, Inc., priority 2006, published 2011):

Assays:
[1] = tested on: human c-Mpl-Ba/F3 cells; experiment: proliferation of cultured human c-Mpl-Ba/F3 cells; format: cell-based; conditions: concentration-dependent; maximum effect similar to that of rhTPO
[2] = species specificity of activity; parameters: species or system chimpanzee and man
[3] = tested on: platelet function; experiment: platelet function (platelet aggregation and activation); format: cell-based, human
[4] = pharmacokinetics after intravenous and oral administration in mice; format: in vivo; conditions: mouse, plasma
Source text: (§1) After a single intravenous administration of the drug of Formula I as the monomaleate salt to mice and dogs, plasma concentrations of Formula I decreased in a biphasic manner.

[5] = pharmacokinetics after intravenous and oral administration in dogs; format: in vivo; conditions: dog, plasma
Source text: as §1

[6] = in-vitro plasma protein binding, rats; format: in vitro ADME; conditions: rat, 0.05 to 50 μg/mL
Procedure: The in-vitro plasma protein binding of the drug of Formula I was independent of concentration over the concentration range of 0.05 to 50 μg/mL and was 87.2-89.1% in mice; 87.6-89.2% in rats; 88.3-92.0% in rabbits; […] in dogs; 97.0-97.6% in monkeys; and 96.3-96.6% in humans.

[7] = biological target: 2D6 (Homo sapiens, UniProt P10635); experiment: inhibition of human liver cytochrome P450 2D6; format: in vitro ADME; conditions: human liver cytochrome P450 isoenzyme
Chain of 2D6 (P10635 whole entry): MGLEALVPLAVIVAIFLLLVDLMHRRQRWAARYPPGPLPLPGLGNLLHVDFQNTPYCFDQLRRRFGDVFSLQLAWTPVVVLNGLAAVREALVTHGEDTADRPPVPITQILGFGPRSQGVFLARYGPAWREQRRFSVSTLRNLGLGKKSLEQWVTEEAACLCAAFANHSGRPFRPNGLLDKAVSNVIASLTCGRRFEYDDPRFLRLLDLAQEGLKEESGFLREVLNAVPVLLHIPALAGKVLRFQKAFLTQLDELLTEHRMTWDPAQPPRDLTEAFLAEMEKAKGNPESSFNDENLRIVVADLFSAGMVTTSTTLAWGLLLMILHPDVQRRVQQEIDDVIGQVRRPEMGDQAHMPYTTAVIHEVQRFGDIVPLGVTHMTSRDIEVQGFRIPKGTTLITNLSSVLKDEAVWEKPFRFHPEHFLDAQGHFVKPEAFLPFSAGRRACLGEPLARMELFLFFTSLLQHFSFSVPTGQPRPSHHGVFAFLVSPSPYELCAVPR

[8] = biological target: 3A4 (Homo sapiens, UniProt P08684); experiment: inhibition of human liver cytochrome P450 3A4; format: in vitro ADME; conditions: human liver cytochrome P450 isoenzyme
Chain of 3A4 (P08684 whole entry): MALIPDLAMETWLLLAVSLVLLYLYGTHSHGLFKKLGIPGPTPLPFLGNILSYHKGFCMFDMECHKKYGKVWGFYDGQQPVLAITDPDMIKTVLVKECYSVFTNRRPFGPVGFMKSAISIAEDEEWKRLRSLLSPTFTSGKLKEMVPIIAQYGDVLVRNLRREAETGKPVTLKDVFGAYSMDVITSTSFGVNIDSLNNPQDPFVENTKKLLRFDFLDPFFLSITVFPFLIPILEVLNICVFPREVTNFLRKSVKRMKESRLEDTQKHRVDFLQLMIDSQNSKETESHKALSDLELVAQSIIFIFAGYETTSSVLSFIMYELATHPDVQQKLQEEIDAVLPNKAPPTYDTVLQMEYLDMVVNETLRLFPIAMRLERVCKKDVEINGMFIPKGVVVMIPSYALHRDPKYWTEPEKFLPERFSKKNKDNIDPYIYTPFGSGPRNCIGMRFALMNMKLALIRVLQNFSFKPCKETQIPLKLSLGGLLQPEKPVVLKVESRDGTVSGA

[9] = 4-week repeat dose toxicity in rats; format: in vivo, rat
[10] = 4-week repeat dose toxicity in cynomolgus monkey; format: in vivo
[11] = tested on: platelet count; experiment: Example 1 single dose study: pharmacodynamics (platelet count); format: in vivo, human
Procedure: (§2) A single-center, randomized, double-blind, dose-rising study to determine the safety, pharmacokinetics, and pharmacodynamics of single doses of 1-(3-chloro-5-{[4-(4-chlorothiophen-2-yl)-5-(4-cyclohexylpiperazin-1-yl)thiazol-2-yl]carbamoyl} pyridin-2-yl)piperadine-4-carboxylic acid (Formula I) in normal healthy volunteers was performed. The starting dose of the drug of Formula I was 1 mg (expressed as free base). Successive dose cohorts received 3, 10, 20, 50, 75 and 100 mg. The drug substance in the form of the monomaleate salt was suspended in Ora-Plus® (purified water, microcrystalline cellulose, sodium carboxymethylcellulose, xanthan gum, citric acid, sodium phosphate, simethicone, potassium sorbate and methylparaben), a commercially available oral suspending vehicle manufactured by Paddock Laboratories, Inc. Minneapolis, Minn. The Ora-Plus® was diluted with purified water, USP in a 1:1 suspension before being used to suspend the drug substance powder in preparation for oral administration. Prior to administration, 30 mL of the Ora-Plus®/water vehicle was added to each bottle, shaken and then consumed by the subject for each of the 3, 10, 50 and 75 mg dose cohorts. This was followed by an additional 30 mL of vehicle that was added to the bottle as a wash solution, shaken and then consumed by the subject. For the 20 mg and 100 mg dose cohorts, 60 mL of the Ora-Plus®/water vehicle was added to two (2) separate bottles containing the appropriate dose of drug (30 mL each bottle), shaken then consumed by the subjects. This was followed by an additional 60 mL of vehicle that was added as 30 ml to each bottle as a wash solution, shaken and then consumed by the subject.
A minimum of 9 subjects (male and female healthy volunteers) were enrolled in each cohort. The active group within each cohort included male and female volunteers. Three subjects per cohort received placebo. Each successive dose cohort was treated no sooner than 10 days after the previous group had received the study drug. […]

[12] = Example 1 single dose study: safety; format: in vivo, human; conditions: single dose up to 100 mg, healthy volunteers
Procedure: as §2, with “For the 20 mg and 100 mg dose cohorts, 60 mL of the Ora-Plus®/water vehicle was added to two (2) separate bottles containing the appropriate dose of drug (30 mL each bottle), shaken then consumed by the subjects. This was followed by an additional 60 mL of vehicle that was added as 30 ml to each bottle as a wash solution, shaken and then consumed by the subject.” left out

[13] = tested on: platelet count; experiment: Example 2 multi-dose study: pharmacodynamics (platelet count); format: in vivo, human
Procedure: (§3) A double-blind, placebo-controlled, dose rising study was performed in healthy male and female volunteers. Each dose cohort received either placebo or active treatment as an oral suspension once daily for fourteen (14) consecutive days. The dose of study drug was prepared and administered as described in Example 1 above. The doses administered in this multiple dose study were based on the safety and tolerability assessment of the doses administered in Example 1.
(§4) Based on the results of Example 1, the starting dose was 3 mg. Based on the safety and tolerability results from Example 1, the dose was scheduled to be escalated to 10, 20, 50 and 100 mg per day for 14 consecutive days. Successive dose cohorts were not treated until the previous cohort completed 14 days of treatment and the safety follow-up visit on Day 21.

[14] = Example 2 multi-dose study: safety; format: in vivo, human; conditions: up to 20 mg daily for ten (10) to fourteen (14) days, healthy volunteers
Procedure: as §3, §4

[15] = oral administration, read-out: absolute bioavailability

half-life ([4]; mice, single intravenous administration as the monomaleate salt, read-out: terminal elimination half-life (t1/2) (converted)): 162 min | bioavailability [4, 15]: 91% | half-life ([5]; dogs, single intravenous administration as the monomaleate salt, read-out: terminal elimination half-life (t1/2) (converted)): 162 min | bioavailability [5, 15]: 52% | fraction unbound [6]: 0.108 to 0.124 | inhibition of CYP2D6 [7]: did not inhibit | inhibition of CYP3A4 [8]: did not inhibit
SMILES: O=C(Nc1nc(-c2cc(Cl)cs2)c(N2CCN(C3CCCCC3)CC2)s1)c1cnc(N2CCC(C(=O)O)CC2)c(Cl)c1 [Formula I, 1-(3-chloro-5-{[4-(4-chlorothiophen-2-yl)-5-(4-cyclohexylpiperazin-1-yl)thiazol-2-yl]carbamoyl}pyridin-2-yl)piperadine-4-carboxylic acid]
proliferation of cultured human c-Mpl-Ba/F3 cells [1]: stimulates the proliferation | species specificity [2]: activity only in the chimpanzee and man | platelet function as measured by platelet aggregation and activation [3]: does not appear to effect platelet function | reversibility of gastric mucosa changes ([9]; rat, on drug withdrawal): resolved on drug withdrawal | CK and aldolase levels ([9]; rat, repeat dosing 4 weeks): Elevated levels of CK and aldolase | muscle degeneration/necrosis in femoral, lower thigh or multifides muscles ([9]; rat, repeat dosing 4 weeks): 1 or 2 rats per dose group | changes in the gastric mucosa ([9]; rats, repeat dosing 4 weeks, 3, 10, 30, 100 mg/kg/day): degeneration of chief cells and parietal cells | changes in the gastric mucosa ([10]; cynomolgus monkey, repeat dosing 4 weeks, 3, 10, 100, 1000 mg/kg/day): necrosis of the surface epithelium and atrophy of the fundic glands and edema and inflammatory infiltrates in the lamia propria of the fundus | muscle degeneration/necrosis in femoral, lower thigh or multifides muscles ([10]; cynomolgus monkey, repeat dosing 4 weeks, lesions partly present before dosing and in a control): one or more monkeys in all dose groups | CK and aldolase levels ([10]; cynomolgus monkey, elevated levels also present prior to the first dose): Elevated levels of CK and aldolase | reversibility of gastric mucosa changes ([10]; high dose monkeys, on drug withdrawal): not entirely | dose at which the PD limit (5 subjects with >50% increase in platelet count) was reached ([11]; single dose): 100 mg | dose-concentration-response relationship for changes in platelet count ([11]; single dose, increasing drug concentrations and exposure): linear increases in platelet counts over baseline | single dose after which statistically significant increases in platelet counts were evident ([11]; single oral dose, healthy volunteers): ≥ 10 mg | tolerability (drug-related clinical or laboratory adverse experiences) [12]: well tolerated | dose-concentration-response relationship for changes in platelet count ([13]; 3 mg to 20 mg dose range, repeat dosing): linear increases in platelet counts over baseline | day by which the revised PD limit (>500,000 platelets) occurred in all six (6) subjects ([13]; 20 mg cohort): 10 to 11 days | dose cohort in which the original PD limit (five subjects with >50% increase in platelet count) was reached ([13]; once daily dosing): 10 mg | platelet counts following repeat administration ([13]; repeat administration of 10 mg and 20 mg): Statistically significant increases in platelet counts | tolerability (drug-related clinical or laboratory adverse experiences) [14]: well tolerated
